# Source: patent US20210322346A1, “CHEMICALLY MODIFIED CURCUMINS FOR USE IN THE PRODUCTION OF LIPOXINS” (The Research Foundation for The State University of New York, priority 2015, published 2021)
# Key:
# [1] = test system: elastase/LPS-treated COPD mice; assay: Morphometry: mean linear intercept (chord length) in COPD mice; assay type: in vivo, mouse; conditions: oral gavage for seven days, control 33, COPD 54
# Procedure: Elastase and LPS exposure: A total of 180 male and 180 female WT mice (8-12 weeks old) were used for all experiments. Experiments were performed in triplicate for each group of age- and gender-matched mice. Animals were exposed by the intranasal route to 10 μl saline containing 1.2 units of porcine pancreatic elastase (Elastin Products, Owensville, Mo.) on Tuesday and 10 μl saline containing 7 μg (−70 endotoxin units) of LPS from Escherichia coli O26:B6 (Sigma-Aldrich, St. Louis, Mo.) on Friday of each week for four consecutive weeks.
# 3 mg of CMC2.24 powder were dissolved in 1 mL suspension of 2% Carboxymethyl cellulose vehicle for the daily oral administration of CMC2.24 (40 mg/kg). Vehicle alone was administered to the control group. Both CMC2.24 and vehicle control were administered once daily over the 7-day protocol by gavage (Zhang, Y. et al. 2010; Elburki, M. S. et al. 2014).
# Morphometry—Air Space Enlargement: In an effort to quantitate alveolar air space enlargement, the Mean Linear Intercept (MLI) was implemented. […] Afterwards, seven equally spaced lines were then drawn within the guard zone, and directly measured by manual use of a ruler. Starting from the left, the line was scanned for any intersections with the alveolar walls and measured until the following intersection with the alveolar surface on the right. […]
# [2] = test system: primary alveolar macrophages; assay: Cell viability by CCK-8 assay in primary alveolar macrophages; assay type: cell-based; conditions: 1 to 80 μM, 24 h
# Procedure: (§1) Human lung epithelial cell line (A549) and primary alveolar macrophage cell culture: Human lung epithelial cell line (A549, ATCC #CCL-185) was purchased from ATCC (Manassas, Va.); and primary alveolar macrophages were prepared from healthy adult animals (swine). A549 cells and primary alveolar macrophages were cultured in RPMI Media 1640 medium supplemented with 10% (v/v) FBS, 1% (v/v) L-glutamine (200 mM) and 1% (v/v) Antibiotic-Antimycotic antibiotics at 37° C. in a humidified 5% CO2 incubator.
# (§2) CMC 2.24 treatment and PM2.5 exposure: The cells were subcultured when cells were grown to about 70% confluency. […]
# (§3) Analysis of cell viability by CCK-8 assay: In order to study the effect of CMC2.24 in A549 cells and primary alveolar macrophages after PM2.5 exposure, cell viability was determined using Cell Counting Kit (CCK)-8 kit (Sigma-Aldrich, MO, USA) according to the manufacturer's instructions, A549 cells (0.5×10^4/well) and primary macrophages (1×10^4/well) were cultured in 96-well plates for 24 h and 6 h, respectively; the cells were then exposed to various concentrations of CMC 2.24 (i.e. 0, 1, 5, 10, 20, 30, 40, and 80 μM of CMC 2.24) in the presence or absence of 100 μg/ml PM2.5 in the media for 24 h. […] Then optical density value was measured at 450 nm using a microplate reader (Multiskan Ascent, Thermo Lab systems). […]
# [3] = test system: IL-1β relative to lipoxin A4; assay: Experiment A: IL-1β and lipoxin A4 secreted by macrophages from treated diabetic rats; assay type: in vivo, rat; conditions: 30 mg/kg oral once per day for 21 days, compared to untreated diabetics
# Procedure: In an in vivo experiment, three groups of adult male rats were established including non-diabetic controls (NDC group; n=6 rats/group); rats that were made diabetic and severely hyperglycemic by STZ injection (D+vehicle group; n=6 rats/group), and a 3rd group of rats (n=6 rats/group) in which the diabetics were orally administered CMC2.24 (30 mg/kg body weight) once per day for 21 days. At the end of the protocol, the rats were sacrificed and the peritoneal cells were collected by washing with cold 15 ml phosphate buffered saline/EDTA, The macrophages were harvested from the peritoneal wash from each rat, after 2 hours of adherence to culture plates (sterile conditions), the cells were counted and then incubated for 18 h at 37° C. in an atmosphere of 95% air/5% CO2. The conditioned media was then collected and analyzed for the resolvin, lipoxin A4, and for two inflammatory cytokines, IL-1β and IL-6. The data is expressed as a ratio of […] (pg/ml) relative to resolvin (ng/ml) secreted by the macrophages from the three experimental groups (FIG. 45A).
# [4] = test system: S. aureus-infected hTG SP-B mice; assay: Mortality in S. aureus pneumonia in hTG SP-B mice; assay type: in vivo, mouse; conditions: 50 mg/kg daily
# Procedure: S. aureus-induced pneumonia model: Pilot experiments were performed to establish the S. aureus Xen36 pneumonia model using different doses of bacteria to infect mouse lung. […] Therefore, direct intratracheal inoculation of bioluminescent S. aureus Xen36 at a dose of 5×10^8/50 μl was used to infect mice in all subsequent experiment (Farnsworth, C. W. et al. 2015; Schriever, M. P. et al. 2011). In brief, hTG SP-B mice between 8 and 12 weeks old were anesthetized using intraperitoneal ketamine/xylazine (90 mg/kg ketamine, 10 mg/kg xylazine) injection. A 0.3-cm mid-line neck incision was made to expose the trachea. In the sham group, 50 μl of sterile vehicle was injected into the trachea by the same method. After infection, bio-luminescence signal was observed and quantified by an in vivo imaging system. (Xenogen-200 series, Caliper Life Sciences, Hopkinton, Mass.). Buprenorphine (0.05 mg/kg body weight) was injected for postoperative analgesia every 8-12 hrs. Mice were returned to their cages in a temperature-controlled room. (22. ° C.) with 12-h light and dark cycles and monitored every 4 h. Mice were anesthetized with isoflurane (2%) at several time points after infection (0 h, 12 h, 24 h, 28 h, 32 h, and 48 h) (Pribaz, J. R. et al, 2012; Guo, Y, et al, 2013). At 48 h after S. aureus infection, nice were sacrificed under anesthesia. […]
# Lipoxin A4 = Lipoxin A4 ELISA in macrophage conditioned media, CFE and serum of diabetic rats; assay type: in vivo, rat; conditions: STZ-diabetic rats, 30 mg/kg oral once per day for 3 weeks
# Procedure: (§4) Adult rats were made diabetic by I.V. injection of streptozotocin; non-diabetic rats served as controls (n=6 rats per group; all groups). Half of the diabetics (blood glucose >500 mg/dl) were orally administered CMC2.24 (30 mg/kg) once per day for 3 weeks; untreated diabetics (D) and N rats received vehicle alone. PEs were collected at time=0 (ie, before thioglycollate injection into peritoneal cavity). Resident macrophages were isolated from PEs, then incubated in cell culture for 13 hours (370 C; 95% air/5% CO2 atmosphere). Lipoxin A4 levels were measured by ELISA (a) in cell culture serum-free conditioned media; (b) in the cell-free exudates (CFEs); and (c) in serum.
# Solubility = assay type: physicochemical
# [5] = test system: IL-6 relative to lipoxin A4; assay: Experiment B: IL-6/lipoxin A4 ratio in LPS-exposed macrophages in culture; assay type: cell-based, rat; conditions: LPS (100 ng/ml)-exposed macrophages, CMC2.24 5 μM
# Procedure: (§5) In the second experiment, macrophages (chronic inflammatory cells), were collected and counted from the peritoneal washes of the six non-diabetic control rats. These cells were then pooled and incubated under different in vitro conditions including: group 1, control Møs; group 2, Møs incubated with lipopolysaccharide (LPS)/endotoxin at 100 ng/ml, final concentration, added to the culture media; group 3, Møs exposed to LPS but treated with CMC2.24 at a final concentration of 2 μM; and group 4, like group 3 except that CMC2.24 was increased to 5 μM (note that in this cell culture experiment, sufficient IL-6 was secreted by the LPS-exposed Møs unlike Experiment A, above).
# [6] = cell and tissue culture, in vivo studies; cited from earlier work
# [7] = cited from earlier work
# [8] = test system: IL-1β relative to lipoxin A4; assay: Experiment B: IL-1β/lipoxin A4 ratio in LPS-exposed macrophages in culture; assay type: cell-based, rat; conditions: LPS (100 ng/ml)-exposed macrophages, CMC2.24 5 μM
# Procedure: as §5
# [9] = rats with pathologically excessive MMPs, doses as high as 500 mg/kg of body weight; cited from earlier work
# Lipoxin B4 = Lipoxin B4 ELISA in macrophage conditioned media, CFE and serum of diabetic rats; assay type: in vivo, rat; conditions: STZ-diabetic rats, 30 mg/kg oral once per day for 3 weeks
# Procedure: as §4, with “18” for “13”, “B4” for “A4”
# [10] = test system: Human lung epithelial cell line (A549); assay: Cell viability by CCK-8 assay in A549 cells; assay type: cell-based; conditions: 1 to 80 μM, 24 h
# Procedure: as §1, §2, §3
compound,measurement,setting,value
O=C(/C=C/c1ccc(O)cc1)C(C(=O)/C=C/c1ccc(O)cc1)C(=O)Nc1ccccc1 [CMC2.24],average chord length (mean linear intercept),[1],35 µm
same,"cell viability (CCK-8), compound alone",[2],did not influence cell viability
same,reduction of ratio IL-1β relative to lipoxin A4 secreted by macrophages,[3],85.3%
same,mortality rate,"[4]; infected SP-B-C mice, control 76%, p<0.05",50%
same,mortality rate,"[4]; infected SP-B-T mice, control 33%",32%
same,increase of Lipoxin A4 in rat serum,Lipoxin A4,15.5%
same,increase of Lipoxin A4 in resident peritoneal cell-free exudates,Lipoxin A4,80.6%
same,increase of Lipoxin A4 secretion by resident peritoneal macrophages,Lipoxin A4; vs untreated diabetics,12.7%
same,solubility relative to CMC2.5,Solubility,improved solubility
same,reduction of IL-6/lipoxin A4 ratio,[5],86%
same,toxicity compared to the parent compound,[6],even less toxicity
same,solubility relative to curcumin,[7],improved solubility
same,reduction of IL-1β/lipoxin A4 ratio,[8],93.8%
same,toxicity on oral gavage,[9],no evidence of toxicity
same,increase of Lipoxin B4 secretion by resident peritoneal macrophages,Lipoxin B4,12.7%
same,"cell viability (CCK-8), compound alone",[10],did not influence cell viability
